Assay results reported in ChEMBL document CHEMBL1129284, “N-methyl-D-aspartic acid receptor agonists: resolution, absolute stereochemistry, and pharmacology of the enantiomers of 2-amino-2-(3-hydroxy-5-methyl-4-isoxazolyl)acetic acid” (J Med Chem, 1996).

Key:
[1] = target: Glutamate receptor ionotropic, kainate; assay: Inhibitory activity against Ionotropic glutamate receptor kainate using [3H]-kainic acid as radioligand; format: protein-complex assay
[2] = target: Glutamate receptor ionotropic, AMPA (Rattus norvegicus, UniProt P19490+P19491+P19492+P19493); assay: Inhibitory activity against Ionotropic glutamate receptor AMPA using [3H]AMPA as radioligand; format: protein-complex assay
Rattus norvegicus = species on record: Rattus norvegicus; assay: Effective dose against rat cortical slice cells using Electrophysiological experiment.; format: functional; conditions: read-out: ED50 (the source's name)
Glutamate NMDA receptor = assay: Inhibitory activity against N-methyl-D-aspartate glutamate receptor using [3H]CPP as radioligand; format: protein-complex assay

Row | IC50 [1] [µM] | IC50 [2] [µM] | EC50 (Rattus norvegicus) [µM] | IC50 (Glutamate NMDA receptor) [µM] | Compound
1 | > 100 | > 100 | 12 | – | Cc1o[nH]c(=O)c1C(N)C(=O)O (stereo not given)
2 | > 100 | > 100 | 75 | 61 | Cc1onc(O)c1[C@H](N)C(=O)O
3 | > 100 | > 100 | 15 | 35 | CN[C@H](CC(=O)O)C(=O)O [N-METHYL-D-ASPARTIC ACID (NMDA)]

Continued, compound first:

Row | Compound | IC50 [1] [µM] | IC50 [2] [µM] | EC50 (Rattus norvegicus) [µM] | IC50 (Glutamate NMDA receptor) [µM]
4 | NC(C(=O)O)c1cc(=O)[nH]o1 (stereo not given) | > 100 | 76 | 3.8 | > 100
5 | Cc1onc(O)c1[C@@H](N)C(=O)O | > 100 | 72 | 7.3 | 3.7
6 | Cc1onc(O)c1C[C@H](N)C(=O)O [(S)-AMPA] | – | – | 580 | –
